Values quoted from earlier work, collected in PubChem BioAssay AID1259409 (Chemical Carcinogenesis Research Information System (CCRIS), 2018).

Tested on: rodent chemically induced tumor inhibition, incidence and multiplicity
Experiment: CCRIS tumor inhibitor studies
Settings: Dose [Inhibitor]: 0, Route [Inhibitor]: ORAL, Species: RAT, Promoter: NONE USED

Q: Which “tumour outcome (control, treated, inhibition, significance)” value (Carcinogen: 2-AMINO-1-METHYL-6-PHENYLIMIDAZO[4,5-B]PYRIDINE, 105650-23-5, 1% IN DIET FOR 52 WK CONCURRENTLY WITH CARCINOGEN TREATMENT (STUDY DURATION: 52 WK), Strain/Sex: F344/FEMALE, Target Tissue: Type of Lesion: LARGE INTESTINE: ADENOMA OR CARCINOMA, Dose [Carcinogen]: 0.02% IN DIET FOR 52 WK) does the source give for `CCCCCCCCCCCCC(=O)COC1=C(O)C(=O)O[C@@H]1[C@@H](O)CO` here?
A: 2/18 (11%), 1/20 (5%), 55%, not significant

Q: What about the “tumour outcome (control, treated, inhibition, significance)” value (Carcinogen: 2-AMINO-1-METHYL-6-PHENYLIMIDAZO[4,5-B]PYRIDINE, 105650-23-5, 1% IN DIET FOR 52 WK CONCURRENTLY WITH CARCINOGEN TREATMENT (STUDY DURATION: 52 WK), Strain/Sex: F344/FEMALE, Target Tissue: Type of Lesion: MAMMARY GLAND: ADENOCARCINOMA, Dose [Carcinogen]: 0.02% IN DIET FOR 52 WK) of the same compound?
A: 8/20 (40%), 5/21 (24%), 40%, not significant

Q: What about the “tumour outcome (control, treated, inhibition, significance)” value (Carcinogen: DIETHYLNITROSAMINE, 55-18-5, N-METHYL-N-NITROSOUREA, 684-93-5, N-BUTYL-N-(4-HYDROXYBUTYL)NITROSAMINE, 3817-11-6, DIMETHY, Carcinogen: DIETHYLNITROSAMINE, 55-18-5, N-METHYL-N-NITROSOUREA, 684-93-5, N-BUTYL-N-(4-HYDROXYBUTYL)NITROSAMINE, 3817-11-6, DIMETHY, 1% IN THE DIET FOR 24 WK BEGINNING 1 D POST CARCINOGEN TREATMENT (STUDY DURATION: 28 WK), Strain/Sex: F344/MALE, Target Tissue: Type of Lesion: LARGE INTESTINE: CARCINOMA, Dose [Carcinogen]: 100 MG/KG BW DEN ONCE FOLLOWED BY 20 MG/KG BW MNU 4 TIMES AND 0.05% BBN IN DRINKING WATER DURING FIRST 2 WK THEN 40 MG/K) of the same compound?
A: 7%, 0%, 100%, not significant

Q: And the “tumour outcome (control, treated, inhibition, significance)” value (Carcinogen: DIETHYLNITROSAMINE, 55-18-5, N-METHYL-N-NITROSOUREA, 684-93-5, N-BUTYL-N-(4-HYDROXYBUTYL)NITROSAMINE, 3817-11-6, DIMETHY, Carcinogen: DIETHYLNITROSAMINE, 55-18-5, N-METHYL-N-NITROSOUREA, 684-93-5, N-BUTYL-N-(4-HYDROXYBUTYL)NITROSAMINE, 3817-11-6, DIMETHY, 1% IN THE DIET FOR 24 WK BEGINNING 1 DAY POST CARCINOGEN TREATMENT (STUDY DURATION: 28 WK ), Strain/Sex: F344/MALE, Target Tissue: Type of Lesion: URINARY BLADDER: CARCINOMA, Dose [Carcinogen]: 100 MG/KG BW DEN ONCE FOLLOWED BY 20 MG/KG BW MNU 4 TIMES AND 0.05% BBN IN DRINKING WATER DURING FIRST 2 WK THEN 40 MG/K)?
A: 7%, 0%, 100%, not significant

Q: And the “tumour outcome (control, treated, inhibition, significance)” value (Carcinogen: DIETHYLNITROSAMINE, 55-18-5, N-METHYL-N-NITROSOUREA, 684-93-5, N-BUTYL-N-(4-HYDROXYBUTYL)NITROSAMINE, 3817-11-6, DIMETHY, Carcinogen: DIETHYLNITROSAMINE, 55-18-5, N-METHYL-N-NITROSOUREA, 684-93-5, N-BUTYL-N-(4-HYDROXYBUTYL)NITROSAMINE, 3817-11-6, DIMETHY, 1% IN THE DIET FOR 24 WK BEGINNING 1 DAY POST CARCINOGEN TREATMENT (STUDY DURATION: 28 WK), Strain/Sex: F344/MALE, Target Tissue: Type of Lesion: LARGE INTESTINE: ADENOMA, Dose [Carcinogen]: 100 MG/KG BW DEN ONCE FOLLOWED BY 20 MG/KG BW MNU 4 TIMES AND 0.05% BBN IN DRINKING WATER DURING FIRST 2 WK THEN 40 MG/K)?
A: 27%, 13%, 52%, not significant

Q: And the “tumour outcome (control, treated, inhibition, significance)” value (Carcinogen: DIETHYLNITROSAMINE, 55-18-5, N-METHYL-N-NITROSOUREA, 684-93-5, N-BUTYL-N-(4-HYDROXYBUTYL)NITROSAMINE, 3817-11-6, DIMETHY, Carcinogen: DIETHYLNITROSAMINE, 55-18-5, N-METHYL-N-NITROSOUREA, 684-93-5, N-BUTYL-N-(4-HYDROXYBUTYL)NITROSAMINE, 3817-11-6, DIMETHY, 1% IN THE DIET FOR 24 WK BEGINNING 1 DAY POST CARCINOGEN TREATMENT (STUDY DURATION: 28 WK), Strain/Sex: F344/MALE, Target Tissue: Type of Lesion: SMALL INTESTINE: ADENOMA, Dose [Carcinogen]: 100 MG/KG BW DEN ONCE FOLLOWED BY 20 MG/KG BW MNU 4 TIMES AND 0.05% BBN IN DRINKING WATER DURING FIRST 2 WK THEN 40 MG/K)?
A: 33%, 20%, 39%, not significant

Q: And the “tumour outcome (control, treated, inhibition, significance)” value (Carcinogen: DIETHYLNITROSAMINE, 55-18-5, N-METHYL-N-NITROSOUREA, 684-93-5, N-BUTYL-N-(4-HYDROXYBUTYL)NITROSAMINE, 3817-11-6, DIMETHY, Carcinogen: DIETHYLNITROSAMINE, 55-18-5, N-METHYL-N-NITROSOUREA, 684-93-5, N-BUTYL-N-(4-HYDROXYBUTYL)NITROSAMINE, 3817-11-6, DIMETHY, 1% IN THE DIET FOR 24 WK BEGINNING 1 DAY POST CARCINOGEN TREATMENT (STUDY DURATION: 28 WK), Strain/Sex: F344/MALE, Target Tissue: Type of Lesion: SMALL INTESTINE: CARCINOMA, Dose [Carcinogen]: 100 MG/KG BW DEN ONCE FOLLOWED BY 20 MG/KG BW MNU 4 TIMES AND 0.05% BBN IN DRINKING WATER DURING FIRST 2 WK THEN 40 MG/K)?
A: 7%, 20%, -185%, not significant

Q: And the “tumour outcome (control, treated, inhibition, significance)” value (Carcinogen: DIETHYLNITROSAMINE, 55-18-5, N-METHYL-N-NITROSOUREA, 684-93-5, N-BUTYL-N-(4-HYDROXYBUTYL)NITROSAMINE, 3817-11-6, DIMETHY, Carcinogen: DIETHYLNITROSAMINE, 55-18-5, N-METHYL-N-NITROSOUREA, 684-93-5, N-BUTYL-N-(4-HYDROXYBUTYL)NITROSAMINE, 3817-11-6, DIMETHY, 1% IN THE DIET FOR 24 WK BEGINNING 1 DAY POST CARCINOGEN TREATMENT (STUDY DURATION: 28 WK), Strain/Sex: F344/MALE, Target Tissue: Type of Lesion: THYROID: CARCINOMA, Dose [Carcinogen]: 100 MG/KG BW DEN ONCE FOLLOWED BY 20 MG/KG BW MNU 4 TIMES AND 0.05% BBN IN DRINKING WATER DURING FIRST 2 WK THEN 40 MG/K)?
A: 7%, 0%, 100%, not significant
